Entries after “also recorded” stand apart in the source; their conditions may differ.
Legend:
[1] = single compound; cited from earlier work
[2] = Relative Energy Difference (RED) with cholesterol, calculated from HSP; details: for Relative Energy Difference (RED) with cholesterol: RED=Ra/Ro, Ro of cholesterol 12.6
Procedure: The extent to which two compounds will dissolve each other can be quantified using the equations developed by Hansen: (Ra)^2=4(δd2−δd1)^2+(δp2−δp1)^2+(δh2−δh1)^2 Eq. (1) RED=Ra/Ro Eq. (2)
Equation 1 calculates the relative magnitude difference of the three Hansen parameters of the two compounds to arrive at Ra. […] Equation 2 allows one to calculate the Relative Energy Difference (RED) of the solvent and the material we are trying to dissolve, by dividing Ra by Ro. Ra was calculated in Equation 1 and measures the magnitude of the difference of the HSP values of the two compounds. The units for the HSP parameters δd, δp, δh are MPa^1/2. […] The Relative Energy Difference (RED) is a dimensionless number which quantifies how well a solvent will dissolve a solute. For an RED>>1 the compounds will not dissolve. For an RED˜1, there will be some dissolution. For an RED<1 there will be a considerable amount of dissolution. Essentially, the smaller RED value, the more solute will dissolve into the solvent, with RED=1 being a threshold where a given solute is starting to be soluble in a given solvent.
Referring now to FIG. 6, this diagram provides a flow chart showing how the biocompatible microdroplet solvent emulsion can be formulated. […] For an example of compounds which might be included in 400, please refer to Tables 1, 2, 3 and 4. However, this list of tables is by no means exhaustive and other compounds could be added to this list. The number of compounds selected can comprise of 1, 2, 3 or as many as are deemed necessary, which is symbolized by the variable n. The HSP parameters of a homogenous mixture of compounds are the weighted average of the HSP parameters of the individual components. […] Ideally, it is possible to formulate a solution such that the resultant RED of the mixture is smaller than the RED of any of the individual components.
The δdm, δpm, δhm calculated using Eq. 9 are the Hansen solubility parameters of the homogenous mixture, where m denotes mixture, and fi depicts the fraction of each of the n components used to fabricate the biocompatible solvent. Equation 10 can be used to calculate the RED of the final mixture, where Ro is the interaction radius of the cholesterol, or other component of arterial plaque one desires to dissolve using the biocompatible microdroplets and […] represents the Hansen solubility constants of cholesterol (dispersion, polar and hydrogen bonding components) or the HSP parameter of the arterial plaque which is being targeted.

[3] = Dissolving cholesterol by microdroplets in whole blood
Source text: (§1) To effectively dissolve arterial plaque in-vivo it is very important that the biocompatible solvent be sufficiently insoluble in blood to allow a small discrete microdroplet to travel through the blood stream, from the injection point, to the plaque which is being treated. If the biocompatible solvent dissolves within the blood, such as an alcohol, the solubility parameters of the resultant mixture will be very nearly identical to that of blood and will not dissolve cholesterol or arterial plaque. Conversely, if a discrete microdroplet of the biocompatible solvent makes contact with the plaque, then the cholesterol molecule in the plaque will be surrounded by multiple molecules of the biocompatible solvent, which have similar solubility parameters as the cholesterol, and the cholesterol will be drawn away from the plaque and into the droplet. […] An organic salt, Esters, an organo-metallic compound could also be used as the main component or an addition to the biocompatible microdroplet solvent means. Essentially any organic molecule which can be administered intravenously with acceptable side effects, is sufficiently insoluble in blood to travel as a discrete microdroplet without being dissolved prior to reaching arterial plaque and which is capable of dissolving cholesterol, cholesterol esters or other materials within the arterial plaque, could potentially be used.
1,8-cineole is classified as a cyclic ether and a monoterpenoid. […] This chemical gives certain fruits such as apples and strawberries their fruity taste, and is used as an additive in bubble gums for this purpose. […] It is used as a fragrance or flavouring agent. […] It is produced natuarally by the organism, and is found in abundance in shark liver oil.

[4] = Water insoluble solvents tested for dissolving cholesterol / arterial plaque; details: medium not stated
Source text: as §1

[5] = cited from earlier work; for mass fraction of cholesterol which will dissolve in a pure solution of the alcohol: 37° C.

Compound | δd London dispersion HSP parameter [1] [MPa^1/2] | δh hydrogen bonding HSP parameter [1] [MPa^1/2] | δp polarity HSP parameter [1] [MPa^1/2] | Relative Energy Difference (RED) with cholesterol [2] | other results
C=C(C)[C@H]1CC=C(C)CC1 (racemic) [Dipentene] | 16.7 | 4 | 2.2 |  | 
CC(C)C12CCC(C)(CC1)O2 [1,4-Cineole] | 17.1 | 3.7 | 3.6 | 0.70 | 
CC12CCC(CC1)C(C)(C)O2 [1,8-cineole] | 16.7 | 3.4 | 4.6 | 0.77 | efficacy at dissolving cholesterol, two experiments compared ([3]; up to a 4× difference in blood volume): identical to within measurement error; efficacy of microdroplets at dissolving cholesterol in whole blood [3]: extremely good efficacy; efficacy of microdroplets at dissolving cholesterol in whole blood ([3]; listed as 1,8 cineole): excellent results; also recorded: excellent efficacy
Brc1cccc2ccccc12 [1-Bromonaphthalene] |  |  |  |  | result of solvent testing (dissolving cholesterol) [4]: very promising results
CC/C=C\C/C=C\C/C=C\CCCCCCCC(=O)O [Alpha-linolenic acid] |  |  |  |  | result of solvent testing (dissolving cholesterol) [4]: very promising results
C=CC(C)(C)C(=O)C=C(C)C [Artemisia Ketone] | 15.9 | 5.1 | 5.8 | 0.83 | 
C=C(C)C1CC=C(C)C(=O)C1 (centres unmarked) [Carvone] | 18 | 6.4 | 5.6 | 0.5 | efficacy of microdroplets at dissolving cholesterol in whole blood [3]: excellent results
CC(C)=CCCC(C)=CC=O [Citral] | 16.3 | 6.2 | 2.3 | 0.7 | 
CC(C)=CCCC(C)CC=O (centres unmarked) [Citronellal] | 16.2 | 5.2 | 5.9 | 0.78 | 
CC(C)=CCCC(C)CCO (centres unmarked) [Citronellol] | 16 | 10.7 | 4.7 | 0.72 | 
CCO [Ethanol, reference compound] |  |  |  | 1.32 | mass fraction of cholesterol which will dissolve in a pure solution of the alcohol [5]: 3.3%
C=CCc1ccc(O)c(OC)c1 [Eugenol] | 18.1 | 11.6 | 7.1 | 0.53 | Ra^2 versus cholesterol ([2]; Eq. 1): 44; efficacy of microdroplets at dissolving cholesterol in whole blood [3]: excellent results
CC(C)=CCCC(C)=CCCC(C)=CCO [Farnesol] | 16.4 | 7.7 | 3.8 | 0.65 | 
C=CC(C)(CCC=C(C)C)OC(C)=O (centres unmarked) [Linalyl Acetate] | 16 | 5.5 | 2.8 | 0.76 | 
CC1CCC(C(C)C)C(O)C1 (centres unmarked) [Menthol] | 16.6 | 10.6 | 4.7 | 0.63 | 
CC(C)[C@@H]1CC[C@@H](C)CC1=O [Menthone] | 17 | 4.4 | 8.1 | 0.79 | 

Compound | δd London dispersion HSP parameter [1] [MPa^1/2] | δh hydrogen bonding HSP parameter [1] [MPa^1/2] | δp polarity HSP parameter [1] [MPa^1/2] | Relative Energy Difference (RED) with cholesterol [2] | other results
C=CC(=C)CCC=C(C)C [Myrcene] | 16 | 5.1 | 2.2 | 0.78 | 
C=CC(C)(O)CCC=C(C)CCC=C(C)C (centres unmarked) [Nerolidol] | 16.4 | 8.7 | 2.7 | 0.64 | 
C=CC(C)=CCC=C(C)C [Ocimene] | 16.5 | 9.1 | 2 | 0.62 | 
C=C(C)C1CC=C(C=O)CC1 (centres unmarked) [Perillaldehyde] | 17.1 | 5.9 | 6.9 | 0.68 | 
CC1=CC(=O)C(C(C)C)CC1 (centres unmarked) [Piperitone] | 17 | 4.5 | 6.2 | 0.72 | 
CCCO [Propanol, reference compound] |  |  |  | 1.10 | mass fraction of cholesterol which will dissolve in a pure solution of the alcohol [5]: 11%
CC(C)=C1CC[C@@H](C)CC1=O [Pulegone] | 17.5 | 5.5 | 8.9 | 0.74 | 
CC(C)=CCC/C(C)=C/CC/C(C)=C/CC/C=C(\C)CC/C=C(\C)CCC=C(C)C [Squalene] | 17.6 | 6 | 3 | 0.52 | 
C=C(C)[C@@H]1CCC=C(C)C1 [Sylvestrene] | 16.6 | 4.1 | 3 | 0.74 | 
CC1=CCC(=C(C)C)CC1 [Terpinolene] | 16.9 | 4.1 | 1.8 | 0.70 | 
CC(C)=CCC[C@H](C)[C@@H]1C=CC(C)=CC1 [Zingiberene] | 16.6 | 4.1 | 1.4 | 0.74 | 
CC(C)CCC[C@@H](C)[C@H]1CC[C@H]2[C@@H]3CC=C4C[C@@H](O)CC[C@]4(C)[C@H]3CC[C@]12C [cholesterol, Cholesterol] | 20.4 | 9.4 | 2.8 |  | solubility of cholesterol in pure water ([5]; 30° C.): approximately 95 micrograms per litre; solubility of cholesterol in water ([5]; 30° C.): 0.000095 grams/litre
O [water, reference compound] |  |  |  | 2.9 | mass fraction of cholesterol which will dissolve in pure water ([5]; pure water): 0.0000095%
Bisabolene | 16.7 | 4 | 2.2 | 0.73 | 
Phellandrene | 16.5 | 3.9 | 1.6 | 0.76 | 
terpinene |  |  |  |  | efficacy of microdroplets at dissolving cholesterol in whole blood [3]: excellent results

Reference: US11123292B2, “Use of biocompatible microdroplets for the treatment of atherosclerosis, heart disease and stroke” (priority 2014, dated 2021)
